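48-hour exposure; five concentrations; linearly interpolated endpoints. Here, GI50 denotes the concentration required for 50% inhibition of growth. TGI: total growth inhibition.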
How the values were obtained:
Assay in all cases: NCI tumour cell line growth inhibition, 48 h
[1] = tested on: SNB-19 CNS
[2] = tested on: HCC-2998 colon
[3] = tested on: ACHN renal
[4] = tested on: SK-MEL-28 melanoma
[5] = tested on: PC-3 prostate
[6] = tested on: MDA-N
[7] = tested on: OVCAR-3 ovarian
[8] = tested on: SK-MEL-2 melanoma
[9] = tested on: UACC-62 melanoma
[10] = tested on: A498 renal
[11] = tested on: K-562 leukemia

Compound | TGI [1] [µM] | TGI [2] [µM] | TGI [3] [µM] | TGI [4] [µM] | TGI [5] [µM] | TGI [6] [µM] | TGI [7] [µM] | TGI [8] [µM] | TGI [9] [µM] | TGI [10] [µM] | TGI [11] [µM] | GI50 [5] [nM]
Fc1ccc2c(c1)nc1n2C(c2c(F)cccc2F)SC1 (stereo unspecified) | > 100 | > 100 | > 100 | > 100 | > 100 | > 100 | > 100 | > 100 | > 100 | > 100 | – | –
CSc1nc(-c2ccccc2)nc(=[N+]2CCOCC2)s1 | > 100 | > 100 | > 100 | > 100 | – | – | > 100 | > 100 | > 100 | > 100 | > 100 | –
CC(C)(C)CC(C)(C)NCC(O)COc1ccc(C(C)(C)c2ccc(OCC(O)CNC(C)(C)CC(C)(C)C)cc2)cc1 (stereo unspecified) | 3.01 | 1.21 | 3.17 | 1.85 | 3.38 | – | 2.47 | 3.28 | 3.31 | 3.03 | 1.16 | 1880
CCN(CC)C(=O)c1cc([N+](=O)[O-])c(=O)n2c1[nH]c1ccccc12 | > 100 | > 100 | > 100 | > 100 | > 100 | > 100 | > 100 | – | > 100 | – | > 100 | –
C=C(Cl)CN1c2ccccc2C=Cc2ccccc21 | > 100 | 33.7 | 35.4 | – | > 100 | 64.1 | 33.9 | 40.6 | 44.2 | 66.9 | – | –
COc1ccc(C2=Nc3c(nc(SC)[nH]c3=O)NC(c3ccccc3)C2)cc1 (stereo unspecified) | 65.4 | – | 56.7 | – | > 100 | 35.4 | > 100 | 94.4 | – | > 100 | 66 | –
Cc1ccc(S(=O)(=O)N/N=C\c2c3ccccc3[n+](C)c3ccccc23)cc1 | 75.1 | > 100 | > 100 | > 100 | – | – | 71.5 | > 100 | 74.6 | > 100 | 52.7 | –
Nc1ccc(C(=O)O)cc1 | > 100 | > 100 | > 100 | > 100 | > 100 | > 100 | > 100 | > 100 | – | – | > 100 | –
CCCCCCCCCCOc1ccc(N=Nc2nnc(-c3ccc(OCCCCC)cc3)s2)cc1 | > 100 | > 100 | > 100 | > 100 | > 100 | > 100 | > 100 | – | > 100 | > 100 | > 100 | –
COc1ccc(C2NC(N)=C(C#N)C3=C2C(C)CCC3)cc1OC (stereo unspecified) | > 100 | – | > 100 | > 100 | > 100 | > 100 | > 100 | > 100 | > 100 | – | > 100 | –
CC1=NN2CCC(=O)N=C2S1 | > 100 | – | > 100 | > 100 | > 100 | > 100 | > 100 | > 100 | > 100 | – | > 100 | –
COC(=N)CCCl | > 100 | > 100 | > 100 | > 100 | > 100 | > 100 | > 100 | – | > 100 | – | > 100 | –
COc1cc(-c2nc(SC)nc3c2CCc2ccccc2-3)cc(OC)c1OC | > 100 | > 100 | > 100 | > 100 | > 100 | – | > 100 | > 100 | > 100 | > 100 | 79.2 | –
Cc1ccc2c(=O)cc(-c3cccc(F)c3)[nH]c2n1 | – | 0.401 | > 100 | > 100 | – | 0.0362 | 0.0415 | – | > 100 | – | > 100 | –
COc1ccc(/C=C(/c2ccc(OC)cc2)c2c(Cl)cc(Cl)c(/C(=C\c3ccc(OC)cc3)c3ccc(OC)cc3)c2N=Nc2ccccc2)cc1 | > 100 | > 100 | > 100 | > 100 | > 100 | – | > 100 | > 100 | > 100 | > 100 | > 100 | –
NC(=S)NS(=O)(=O)c1ccc(Cl)cc1 | > 100 | > 100 | > 100 | > 100 | > 100 | > 100 | > 100 | > 100 | > 100 | – | > 100 | –
CCCCCCCCCCCCCCCCCCNc1nc(=O)n(C2CC(OP(=O)(O)OCC3OC(n4cc(F)c(=O)[nH]c4=O)CC3O)C(CO)O2)cc1F (stereo unspecified) | 30.3 | 52.9 | > 100 | > 100 | > 100 | – | > 100 | 71 | 51.1 | > 100 | > 100 | –
O=C(NNc1nc(-c2ccccc2)cs1)Nc1ccccc1 | > 100 | 70.6 | > 100 | 85.6 | 39.1 | 65.8 | 50.2 | 44.6 | 40.2 | – | > 100 | –
CC1C(c2ccccc2)NC(c2ccccc2)CC1(N)C#N (stereo unspecified) | > 100 | > 100 | > 100 | > 100 | > 100 | > 100 | > 100 | – | > 100 | – | > 100 | –
Nc1ncc2c(n1)-c1ccccc1OC2 | > 100 | > 100 | – | > 100 | – | – | > 100 | > 100 | > 100 | > 100 | > 100 | –
NS(=O)(=O)c1ccc(NCc2nc3ccccc3[nH]2)cc1 | > 100 | – | > 100 | – | > 100 | > 100 | > 100 | > 100 | > 100 | > 100 | – | –
CCN(CCC#N)C(=O)Nc1ccccc1 | > 100 | > 100 | > 100 | > 100 | > 100 | > 100 | > 100 | > 100 | > 100 | – | > 100 | –
Cc1ccc(S(=O)(=O)NC(=O)NC(CC(=O)O)C(=O)O)cc1 (stereo unspecified) | > 100 | – | > 100 | > 100 | > 100 | > 100 | – | > 100 | > 100 | – | > 100 | –

Reference: PubChem BioAssay (NCI)
